Data as given in US11648291B2, “Method of using PRD, PRD-S TAD, ZF7 peptide or mixture thereof to inhibit cellular response to inflammatory stimuli or treat cytokine-storm-mediated diseases” (GUANGZHOU MEDICAL UNIVERSITY, priority 2020, dated 2023).
Where “and” joins values, the source holds several entries; their conditions need not be identical. Equal entries are not always repeated.

What was measured:
[1] = test system: cellular response to TNFα, IL-1β, and LPS; assay: Cellular response to TNFα, IL-1β and LPS, data not shown (control peptide, biotin-tagged peptides); format: cell-based; details: for effect of biotin on the activity of the peptide: biotin attached to the N-terminus
From the text: (§1) In order to test the hypotheses that the PRD and TAD peptides inhibit the response to pro-inflammatory stimuli such as TNFα, IL-1β, and LPS, the peptides were synthesized and transfected into HCT-8 cells using a protein transfection reagent (Pierce). […] Next, we tested whether they can inhibit the expression of genes induced by TNFα, IL-1β, and LPS in human PBMCs. Both peptides indeed inhibited the expression of IL-6, IL-1β, IL-8, and arginase induced by TNFα, IL-1β, or LPS (FIG. 4B). Since both peptides are highly hydrophobic, we tested whether they can penetrate cells. Indeed, both peptides inhibited TNFα- or IL-1β-induced IL-8 expression with or without the transfection agent in HCT-8 cells, although it took more peptides to produce the similar level of inhibition (FIG. 4C, left panel). […] We tested a random peptide sequence ([…], SEQ ID NO:41) as a control and it had no effect on the cellular response to TNFα, IL-1β, and LPS (data not shown).
(§2) Recent findings identified the ZF7 (zinc finger domain 7) as the key domain for A20 to suppress inflammation (FIG. 6A). We hypothesized that ZF7 peptide inhibit the TNFα response just as PRD and TAD peptides do. […] Next, we tested whether ZF7 inhibits LPS response in vivo. We injected mice with a high dose of LPS (200 μg/mouse) or LPS+ZF7 (200 μg/mouse) and collected the sera after 3 hours. […] In order to tract ZF7 peptide inside cells, biotin was attached to the N-terminus to ZF7 peptide.

[2] = test system: gene expression induced by TNFα, LPS, or IL-1β in human PBMCs; assay: Gene expression induced by TNFα, LPS or IL-1β in human PBMCs (ELISA, LegendPlex); format: cell-based; details: transfected PRD 1 μg or TAD 0.5 μg, TNFα 2 ng/ml, LPS 50 ng/ml or IL-1β 2 ng/ml, 24 hours
Description: PBMCs were transfected with either PRD (1 μg) or TAD (0.5 μg) as described in the method. The transfected cells were stimulated with TNFα (2 ng/ml), LPS (50 ng/ml), or IL-1β (2 ng/ml), 4 hours after peptide transfection, for 24 hours. IL-8 expression was measured by ELISA and IL-6, IL-1β, and arginase levels were measured by flow cytometry using LegendPlex as described in the method. The results are the representative of 3 similar experiments.
(§3) HCT-8 cells were transfected with the peptides or just treated with them without transfection (1 μg/ml) and stimulated with TNFα (2 ng/ml) or IL-1-β (1 ng/ml) for 24 hours. PMBCs were treated with the indicated amount of each peptide (no transfection) and stimulated with TNFα (2 ng/ml) for 24 hours. IL-8 expression was measured by ELISA. The results are the representative of 2 similar experiments.
(§4) IL-8 LEISA kit was purchased from ThermoFisher and ELISA was performed according to the manufacturer's instruction.
All steps of PBMC preparation were carried out at room temperature. The blood from the same donor was pooled and mixed 1:1 with pre-warmed (room temperature) 1×PBS (without Ca^2+ or Mg^2+). […]
To simultaneously quantify the concentration of the soluble inflammatory cytokines and chemokines, the cell culture supernatant was analyzed by using the bead-based multiplex LEGENDplex™ (Biolegend) according to the manufacturer's instruction. […]

[3] = test system: TNFα response in HCT-8 cells (C, A20 KD, YAP KD); assay: TNFα response (IL-8 ELISA) in control, A20 KD and YAP KD HCT-8 cells; format: cell-based, human; details: TNFα 2 ng/ml overnight
Description: HCT-8 cells (C, A20 KD, YAP KD) were treated with PRD, TAD, or ZF7 peptide (1 μg/ml) and stimulated with TNFα (2 ng/ml) overnight. IL-8 levels in the medium were measured by ELISA. The results are the representative of 2 similar experiments. IL-8 LEISA kit was purchased from ThermoFisher and ELISA was performed according to the manufacturer's instruction. Next, we investigated how PRD, TAD, and ZF7 peptides inhibit the TNFα response. The PRD, TAD, and ZF7 peptides have the same effect as either YAP9 OE (over-expression) or A20 OE, respectively. Since YAP9 OE or A20 OE is futile in the absence of the other (FIGS. 5B and 5C), PRD or TAD peptide should also require the presence of A20 while ZF7 peptide the presence of YAP9. Indeed, our data supported this notion. When both YAP9 and A20 are present (C), all 3 peptides inhibited the TNFα response.

[4] = test system: TNFα-induced IL-8 expression in HCT-8 cells; assay: TNFα/IL-1β-induced IL-8 expression in HCT-8 cells (IL-8 ELISA); format: cell-based, human; details: for expression of IL-8 by the peptides themselves: no stimulus; for TNFα- or IL-1β-induced IL-8 expression: HCT-8, with or without the transfection agent, 1 μg/ml, TNFα 2 ng/ml or IL-1β 1 ng/ml, more peptide needed without transfection
Description: The indicated amount of the peptides was transfected into HCT-8 as described in the method. The transfected cells were stimulated with TNFα (4 hours after peptide transfection) for 24 hours. IL-8 expression was measured by ELISA. The results are the representative of 3 similar experiments.
as §3
HCT-8 cells were stimulated with TNFα (2 ng/ml) with the indicated amount of PRD-S peptide for 24 hours. IL-8 expression was measured by ELISA.
Human PBMCs and THP-1 cells were cultured in RPMI-1640 while FLS and HCT-8 cells in DMEM, supplemented with 10% fetal bovine serum and maintained in a humidified incubator at 37° C. with 5% CO2 in air.
as §4
Peptides were transfected into the cells using Pierce Protein Transfection Reagent Kit™ according to the manufacturer's instruction. The Pierce Reagent in methanol was pipetted into a tube and the solvent was evaporated in the hood. Peptides were diluted in PBS and mixed with the dried Pierce Reagent. The peptides/Reagent complex was added to the cells in serum-free medium. After 4 hours, the medium containing serum was added to the cells and the cells were used for experiments.
as §1
Based on the sequence analysis of the YAP1 mutants (FIG. 2A), we tested whether the shortest PRD peptide (M1) inhibits the TNFα response. We named this peptide as PRD-S(small).
as §2

[5] = test system: LPS response in mice; assay: LPS response in mice: serum cytokines and chemokines by LegendPlex (Table 1); format: in vivo, C57BL/6 mice
Description: as §2
Table.1 ZF7 peptide inhibits the LPS response in mice. C57BL/6 mice (n=2) were injected intraperitoneally with LPS (200 μg/mouse) or LPS (200 μg/mouse)+ZF7 peptide (200 μg/mouse) and the sera were collected after 3 hours. The cytokines and chemokines in the sera were measured by LegendPlex according to the manufacturer's instruction. The number represents pg/ml.

[6] = test system: LPS-induced mortality; assay: LPS-induced mortality in mice; format: in vivo, mice (C57B/6); details: mice n=5, LPS 200 μg + ZF7 300 μg i.p., observed 7 days; LPS control group 60% mortality
Description: Mice (8-week old, C57B/6, n=5) were injected with LPS (200 μg) or LPS (200 μg)+ZF7 (300 μg) in 200 μl PBS intraperitoneally.
Since ZF7 inhibited LPS-induced cytokine production in mice (Table 1), we next tested whether ZF7 peptide can protect mice from LPS-induced mortality.

[7] = control HCT-8 (both YAP9 and A20 present), peptide 1 μg/ml
[8] = HCT-8, peptides transfected, TNFα 24 hours, ELISA
[9] = serum 3 hours after i.p. LPS 200 μg/mouse + ZF7 200 μg/mouse, one line per mouse (n=2)

Sequence | expression of IL-6, IL-1β, IL-8, and arginase induced by TNFα, IL-1β, or LPS [2] | effect of biotin on the activity of the peptide [1] | TNFα response (IL-8) ([3]; A20 KD HCT-8, peptide 1 μg/ml) | TNFα response (IL-8) ([3]; YAP KD HCT-8, peptide 1 μg/ml) | TNFα response (IL-8) [3, 7] | TNFα-induced IL-8 expression [4, 8] | expression of IL-8 by the peptides themselves ([4]; HCT-8, peptides transfected) | TNFα- or IL-1β-induced IL-8 expression ([4]; 24 hours) | other results
ARNDCEQGHILKMFPSTWYV [random peptide sequence, reference compound] | – | – | – | – | – | – | – | – | effect on the cellular response to TNFα, IL-1β, and LPS ([1]; control peptide): no effect
GQPPSQPPQGQGPPSGPGQPAPAATQAAPQ (listed as Homo sapiens) [PRD] | inhibited | did not affect the activity | significantly less effective | retained their full inhibitory capacity | inhibited | suppressed | did not affect | inhibited | –
PPKQRCRAPACDHFGNAKCNGYCNECYQFKQMYG (listed as Homo sapiens) [ZF7] | – | did not affect the activity | retained its full inhibitory capacity | ineffective | inhibited | – | – | – | all the cytokines and chemokines measured in sera ([5]; mice, LPS 200 μg/mouse + ZF7 200 μg/mouse, sera after 3 hours): almost completely inhibited; CCL2 [5, 9]: 238.13 pg/mL and 222.5 pg/mL; GMCSF [5, 9]: <18.38 pg/mL; IFNβ [5, 9]: <4.36 pg/mL; IFNγ [5, 9]: <0.53 pg/mL and 87.58 pg/mL; IL1-β [5, 9]: <4.33 pg/mL and 14.99 pg/mL; IL-1α [5, 9]: <26.12 pg/mL and 57.24 pg/mL; IL-6 [5, 9]: 4142.37 pg/mL and 1570.50 pg/mL; IL-10 [5, 9]: <9.48 pg/mL and 65.31 pg/mL; IL-17A [5, 9]: <4.47 pg/mL and 129.84 pg/mL; IL-27 [5, 9]: <8.56 pg/mL and 137.96 pg/mL; TNFα [5, 9]: <4.10 pg/mL and 44.45 pg/mL; TNFα response (IL-8 ELISA) ([4]; HCT-8, without transfection, TNFα 2 ng/ml overnight): significantly inhibited; LPS-induced mortality [6]: no mortality
QPPGQGPPSGPGQPA (listed as Homo sapiens) [PRD-S] | – | – | – | – | – | – | – | – | TNFα-induced IL-8 expression ([4]; HCT-8, PRD-S without transfection, TNFα 2 ng/ml, 24 hours): inhibited TNFα-induced IL-8 expression in a dose-response manner
RQAMRININPSTANSPKCQE (listed as Homo sapiens) [TAD] | inhibited | did not affect the activity | significantly less effective | retained their full inhibitory capacity | inhibited | suppressed | did not affect | inhibited | relative potency in suppressing TNFα-induced IL-8 expression ([4]; HCT-8, peptides transfected): more potent than PRD peptide
